ChEMBL document CHEMBL2440076, “New triarylpyrazoles as broad-spectrum anticancer agents: design, synthesis, and biological evaluation” (Eur J Med Chem, 2013)

What was measured:
Type in all cases: functional
HT-29 = experiment: Growth inhibition of human HT-29 cells assessed as cell growth at 5X10'-9 M after 48 hrs by sulforhodamine B assay; details: HT-29, 48 h, read-out: Activity
HCT-116 = experiment: Growth inhibition of human HCT116 cells assessed as cell growth at 5X10'-9 M after 48 hrs by sulforhodamine B assay; details: HCT-116, 48 h, read-out: Activity
NCI-H460 = experiment: Growth inhibition of human NCI-H460 cells assessed as cell growth at 5X10'-5 M after 48 hrs by sulforhodamine B assay; details: NCI-H460, 48 h, read-out: Activity
SR = experiment: Growth inhibition of human SR cells assessed as cell growth at 5X10'-5 M after 48 hrs by sulforhodamine B assay; details: read-out: Activity
HL-60(TB) [1] = experiment: Growth inhibition of human HL-60(TB) cells assessed as cell growth at 5X10'-5 M after 48 hrs by sulforhodamine B assay; details: HL-60, 48 h, read-out: Activity
CCRF-CEM = experiment: Growth inhibition of human CCRF-CEM cells assessed as cell growth at 5X10'-5 M after 48 hrs by sulforhodamine B assay; details: read-out: Activity
[2] = Growth inhibition of human Hs 578T cells assessed as cell growth at 5X10'-6 M after 48 hrs by sulforhodamine B assay; details: read-out: Activity
RXF 393 = experiment: Growth inhibition of human RXF393 cells assessed as cell growth at 5X10'-6 M after 48 hrs by sulforhodamine B assay; details: RXF 393, 48 h, read-out: Activity
IGROV-1 [3] = experiment: Growth inhibition of human IGROV1 cells assessed as cell growth at 5X10'-6 M after 48 hrs by sulforhodamine B assay; details: IGROV-1, 48 h, read-out: Activity
HOP-92 = experiment: Growth inhibition of human HOP92 cells assessed as cell growth at 5X10'-9 M after 48 hrs by sulforhodamine B assay; details: HOP-92, 48 h, read-out: Activity
HL-60(TB) [4] = experiment: Growth inhibition of human HL-60(TB) cells assessed as cell growth at 5X10'-9 M after 48 hrs by sulforhodamine B assay; details: HL-60, 48 h, read-out: Activity
SNB-19 = experiment: Growth inhibition of human SNB19 cells assessed as cell growth at 5X10'-6 M after 48 hrs by sulforhodamine B assay; details: SNB-19, 48 h, read-out: Activity
SF-268 = experiment: Growth inhibition of human SF268 cells assessed as cell growth at 5X10'-6 M after 48 hrs by sulforhodamine B assay; details: SF-268, 48 h, read-out: Activity
NCI-H226 = experiment: Growth inhibition of human NCI-H226 cells assessed as cell growth at 5X10'-6 M after 48 hrs by sulforhodamine B assay; details: NCI-H226, 48 h, read-out: Activity
TK-10 = experiment: Growth inhibition of human TK10 cells assessed as cell growth at 5X10'-7 M after 48 hrs by sulforhodamine B assay; details: TK-10, 48 h, read-out: Activity
786-0 = experiment: Growth inhibition of human 786-0 cells assessed as cell growth at 5X10'-7 M after 48 hrs by sulforhodamine B assay; details: 786-0, 48 h, read-out: Activity
SK-OV-3 [5] = experiment: Growth inhibition of human SKOV3 cells assessed as cell growth at 5X10'-7 M after 48 hrs by sulforhodamine B assay; details: SK-OV-3, 48 h, read-out: Activity
[6] = Growth inhibition of human NCI-ADR-RES cells assessed as cell growth at 5X10'-7 M after 48 hrs by sulforhodamine B assay; details: read-out: Activity
IGROV-1 [7] = experiment: Growth inhibition of human IGROV1 cells assessed as cell growth at 5X10'-7 M after 48 hrs by sulforhodamine B assay; details: IGROV-1, 48 h, read-out: Activity
UACC-257 [8] = experiment: Growth inhibition of human UACC257 cells assessed as cell growth at 5X10'-7 M after 48 hrs by sulforhodamine B assay; details: UACC-257, 48 h, read-out: Activity
SN12C [9] = experiment: Growth inhibition of human SN12C cells assessed as cell growth at 5X10'-8 M after 48 hrs by sulforhodamine B assay; details: read-out: Activity
UACC-62 = experiment: Growth inhibition of human UACC62 cells assessed as cell growth at 5X10'-8 M after 48 hrs by sulforhodamine B assay; details: UACC-62, 48 h, read-out: Activity
Malme-3M = experiment: Growth inhibition of human MALME-3M cells assessed as cell growth at 5X10'-8 M after 48 hrs by sulforhodamine B assay; details: read-out: Activity
LOX IMVI = experiment: Growth inhibition of human LOXIMVI cells assessed as cell growth at 5X10'-8 M after 48 hrs by sulforhodamine B assay; details: read-out: Activity
SNB-75 = experiment: Growth inhibition of human SNB75 cells assessed as cell growth at 5X10'-8 M after 48 hrs by sulforhodamine B assay; details: SNB-75, 48 h, read-out: Activity
MDA-MB-468 = experiment: Growth inhibition of human MDA-MB-468 cells assessed as cell growth at 5X10'-5 M after 48 hrs by sulforhodamine B assay; details: MDA-MB-468, 48 h, read-out: Activity
SN12C [10] = experiment: Growth inhibition of human SN12C cells assessed as cell growth at 5X10'-5 M after 48 hrs by sulforhodamine B assay; details: read-out: Activity
SK-OV-3 [11] = experiment: Growth inhibition of human SKOV3 cells assessed as cell growth at 5X10'-5 M after 48 hrs by sulforhodamine B assay; details: SK-OV-3, 48 h, read-out: Activity
OVCAR-4 = experiment: Growth inhibition of human OVCAR4 cells assessed as cell growth at 5X10'-5 M after 48 hrs by sulforhodamine B assay; details: OVCAR-4, 48 h, read-out: Activity
SK-MEL-28 = experiment: Growth inhibition of human SK-MEL-28 cells assessed as cell growth at 5X10'-5 M after 48 hrs by sulforhodamine B assay; details: SK-MEL-28, 48 h, read-out: Activity
BT-549 = experiment: Growth inhibition of human BT549 cells assessed as cell growth at 5X10'-9 M after 48 hrs by sulforhodamine B assay; details: BT-549, 48 h, read-out: Activity
[12] = Growth inhibition of human Hs 578T cells assessed as cell growth at 5X10'-9 M after 48 hrs by sulforhodamine B assay; details: read-out: Activity
[13] = Growth inhibition of human NCI-ADR-RES cells assessed as cell growth at 5X10'-9 M after 48 hrs by sulforhodamine B assay; details: read-out: Activity
OVCAR-8 = experiment: Growth inhibition of human OVCAR8 cells assessed as cell growth at 5X10'-9 M after 48 hrs by sulforhodamine B assay; details: OVCAR-8, 48 h, read-out: Activity
UACC-257 [14] = experiment: Growth inhibition of human UACC257 cells assessed as cell growth at 5X10'-9 M after 48 hrs by sulforhodamine B assay; details: UACC-257, 48 h, read-out: Activity
SK-MEL-5 = experiment: Growth inhibition of human SK-MEL-5 cells assessed as cell growth at 5X10'-9 M after 48 hrs by sulforhodamine B assay; details: SK-MEL-5, 48 h, read-out: Activity
SF-539 = experiment: Growth inhibition of human SF539 cells assessed as cell growth at 5X10'-9 M after 48 hrs by sulforhodamine B assay; details: SF-539, 48 h, read-out: Activity

SMILES: COc1cc(-c2nn(-c3cccc(NC(=O)Nc4ccc(Cl)c(Cl)c4)c3)cc2-c2ccncc2)ccc1Cl
- growth at 0.005 µM (HT-29): 102%
- growth at 0.005 µM (HCT-116): 105%
- growth at 50 µM (NCI-H460): 2%
- growth at 50 µM (SR): -26%
- growth at 50 µM (HL-60(TB) [1]): 3%
- growth at 50 µM (CCRF-CEM): 2%
- growth at 5 µM [2]: 11%
- growth at 5 µM (RXF 393): -34%
- growth at 5 µM (IGROV-1 [3]): -17%
- growth at 0.005 µM (HOP-92): 75%
- growth at 0.005 µM (HL-60(TB) [4]): 111%
- growth at 5 µM (SNB-19): 21%
- growth at 5 µM (SF-268): 8%
- growth at 5 µM (NCI-H226): 8%
- growth at 0.5 µM (TK-10): 83%
- growth at 0.5 µM (786-0): 89%
- growth at 0.5 µM (SK-OV-3 [5]): 105%
- growth at 0.5 µM [6]: 72%
- growth at 0.5 µM (IGROV-1 [7]): 90%
- growth at 0.5 µM (UACC-257 [8]): 83%
- growth at 0.05 µM (SN12C [9]): 94%
- growth at 0.05 µM (UACC-62): 94%
- growth at 0.05 µM (Malme-3M): 109%
- growth at 0.05 µM (LOX IMVI): 101%
- growth at 0.05 µM (SNB-75): 83%
- growth at 50 µM (MDA-MB-468): -31%
- growth at 50 µM (SN12C [10]): 10%
- growth at 50 µM (SK-OV-3 [11]): 6%
- growth at 50 µM (OVCAR-4): 5%
- growth at 50 µM (SK-MEL-28): -6%
- growth at 0.005 µM (BT-549): 104%
- growth at 0.005 µM [12]: 99%
- growth at 0.005 µM [13]: 104%
- growth at 0.005 µM (OVCAR-8): 99%
- growth at 0.005 µM (UACC-257 [14]): 98%
- growth at 0.005 µM (SK-MEL-5): 98%
- growth at 0.005 µM (SF-539): 94%
